Results published in US11712434B2, “Compound having anti-cancer effect, and preparation method therefor and use thereof” (3D MEDICINES (BEIJING) CO., LTD., priority 2016, dated 2023).

Columns and labels:
Test in all cases: Cell proliferation assay (Alamar Blue)
Format in all cases: cell-based
22RV1 = conditions: Homo sapiens, 144 h; 22RV1 tumor cell line; 6 days culture
Procedure: (§1) 1. Instruments and Materials • Thermo 311 CO2 incubator; Haier biosafety cabinet; Molecular Devices microplate reader; Xiangyi brand L530 desktop low speed centrifuge; Olympus IX51 inverted fluorescence microscope, DMEM, RPMI 1640, MEM, DMEM/F12 1:1 medium, Fetal bovine serum, 0.25% trypsin solution, phosphate buffer (Thermo Fisher Shanghai Co., Ltd.); sigma dimethyl sulfoxide (DMSO), resazurin; 54 commercial tumor cell lines (including 26 liver cancer cell lines). Experimental drugs: compounds 1-12 and active drug Linifanib; chemotherapeutic drug Doxorubicin (HY-15142; Shanghai Qianyuan Biomedical Technology Co., Ltd.).
(§2) 2. Experimental Methods • 2.1 Cultivation of Different Cell Lines • 54 cell lines were cultured in a culture medium containing fetal bovine serum and placed in a 5% CO2 incubator at 37° C. for incubation. The cells were all grown in an adherent state, and the growth was observed under an inverted microscope, and subculture was performed when the cell confluence rate reached 80%-90%. The proportion and quantity of passage were determined by experimental needs. The ratio of subculture of this cell line was generally 1:2^˜1:3. • 2.2 Inhibition Effect on the Proliferation of Different Tumor Cell Lines • Cell test: 54 cell lines in logarithmic growth phase were inoculated in 96-well culture plates at 500^˜1×10^4/well (the optimal seeding density of each cell line was determined in pre-experiment), After incubating at 37° C. for 4 h in a 5% CO2 humidification incubator, added 10 μL of compounds 1-12 or Linifanib to each well, and tested 9 drug concentration gradients for each compound (diluted from the highest concentration of the test by 3.16 times). The solubility of each compound was different at a starting concentration of 100 or 30 μM, respectively. The QC reference compound Doxorubicin was added simultaneously to each cell line test, and the final drug concentrations were 10, 3.16, 1, 0.31, 0.1, 0.03, 0.01, 0.003, and 0.001 μM, respectively. In addition, a positive control group (100% inhibition) and a negative control group (0% inhibition) were set at the same time. The drug group was repeated for 2 wells per concentration, and the positive control group and the negative control group were repeated for 6 wells. After the culture was continued for 6 days in the incubator, AlamarBlue test operation was followed; • AlamarBlue test procedure: Incubated with 10 μL of AlamarBlue reagent per well for 1-4 h, shook for 1-2 min, MD microplate reader EX: 560 nm, EM: 590 nm wavelength to measure fluorescence, recorded the results, calculated the cell inhibition rate of the compound of the invention. Cell inhibition rate (%)=(A0% inhibition−A administration)/(A0% inhibition−A100% inhibition)×100%, and then using the method of nonlinear regression using GraphPad Prism 5.0 or MATILAB software (usually using four parameters) to graph and obtain a drug dose response curve to obtain an IC50 value of the compound of the present invention acting on a cancer cell line.

AN3CA = conditions: Homo sapiens, AN3-CA, 144 h; AN3CA tumor cell line; 6 days culture
Procedure: as §1, §2

HEPG2 = conditions: Homo sapiens, 144 h; HEPG2 liver cancer cell line; 6 days culture
Procedure: as §1, §2

HUH6 = conditions: Homo sapiens, HuH-6, 144 h; HUH6 liver cancer cell line; 6 days culture
Procedure: as §1, §2

JHH1 = conditions: 144 h; JHH1 liver cancer cell line; 6 days culture
Procedure: as §1, §2

JHH2 = conditions: JHH-2, 144 h; JHH2 liver cancer cell line; 6 days culture
Procedure: as §1, §2

JHH6 = conditions: 144 h; JHH6 liver cancer cell line; 6 days culture
Procedure: as §1, §2

JHH7 = conditions: 144 h; JHH7 liver cancer cell line; 6 days culture
Procedure: as §1, §2

K562 = conditions: Homo sapiens, 144 h; K562 tumor cell line; 6 days culture
Procedure: as §1, §2

LNCAP-clone-FGC = conditions: Homo sapiens, 144 h; LNCAP-clone-FGC tumor cell line; 6 days culture
Procedure: as §1, §2

Li-7 = conditions: 144 h; Li-7 liver cancer cell line; 6 days culture
Procedure: as §1, §2

MDA-MB-231 = conditions: Homo sapiens, 144 h; MDA-MB-231 tumor cell line; 6 days culture
Procedure: as §1, §2

MDA-MB-435S = conditions: Homo sapiens, 144 h; MDA-MB-435S tumor cell line; 6 days culture
Procedure: as §1, §2

MFM-223 = conditions: Homo sapiens, 144 h; MFM-223 tumor cell line; 6 days culture
Procedure: as §1, §2

MG63 = conditions: Homo sapiens, MG-63, 144 h; MG63 tumor cell line; 6 days culture
Procedure: as §1, §2

NCI-H1648 = conditions: Homo sapiens, 144 h; NCI-H1648 tumor cell line; 6 days culture
Procedure: as §1, §2

NCI-H2170 = conditions: Homo sapiens, 144 h; NCI-H2170 tumor cell line; 6 days culture
Procedure: as §1, §2

NCI-H661 = conditions: Homo sapiens, 144 h; NCI-H661 tumor cell line; 6 days culture
Procedure: as §1, §2

SK-HEP-1 = conditions: Homo sapiens, SK-HEP1, 144 h; SK-HEP-1 liver cancer cell line; 6 days culture
Procedure: as §1, §2

SNU182 = conditions: Homo sapiens, SNU-182, 144 h; SNU182 liver cancer cell line; 6 days culture
Procedure: as §1, §2

SNU354 = conditions: Homo sapiens, SNU-354, 144 h; SNU354 liver cancer cell line; 6 days culture
Procedure: as §1, §2

SNU387 = conditions: Homo sapiens, SNU-387, 144 h; SNU387 liver cancer cell line; 6 days culture
Procedure: as §1, §2

SNU475 = conditions: Homo sapiens, SNU-475, 144 h; SNU475 liver cancer cell line; 6 days culture
Procedure: as §1, §2

SNU739 = conditions: SNU-739, 144 h; SNU739 liver cancer cell line; 6 days culture
Procedure: as §1, §2

SNU761 = conditions: 144 h; SNU761 liver cancer cell line; 6 days culture
Procedure: as §1, §2

TE-15 = conditions: Homo sapiens, 144 h; TE-15 tumor cell line; 6 days culture
Procedure: as §1, §2

TE-6 = conditions: Homo sapiens, 144 h; TE-6 tumor cell line; 6 days culture
Procedure: as §1, §2

## Cc1ccc(F)c(NC(=O)Nc2ccc(-c3cccc4[nH]nc(NC(=O)C[C@H](N)C(=O)O)c34)cc2)c1 [Compound 10]
22RV1
  IC50: 6.37 µM
AN3CA
  IC50: 0.27 µM
HEPG2
  IC50: 0.97 µM
HUH6
  IC50: 43.8 µM
JHH1
  IC50: 14.5 µM
JHH2
  IC50: 36.8 µM
JHH6
  IC50: 5.38 µM
JHH7
  IC50: 1.36 µM
K562
  IC50: 14.6 µM
LNCAP-clone-FGC
  IC50: 14.8 µM
Li-7
  IC50: 5.28 µM
MDA-MB-231
  IC50: 4.63 µM
MDA-MB-435S
  IC50: 9.46 µM
MFM-223
  IC50: 2.64 µM
MG63
  IC50: 1.95 µM
NCI-H1648
  IC50: 7.42 µM
NCI-H2170
  IC50: 4.28 µM
NCI-H661
  IC50: 18 µM
SK-HEP-1
  IC50: 14.9 µM
SNU182
  IC50: 22.1 µM
SNU354
  IC50: 3.33 µM
SNU387
  IC50: 20.1 µM
SNU475
  IC50: 4.39 µM
SNU739
  IC50: 5.29 µM
SNU761
  IC50: 8.73 µM
TE-15
  IC50: 2.58 µM
TE-6
  IC50: 6.98 µM

## Cc1ccc(F)c(NC(=O)Nc2ccc(-c3cccc4[nH]nc(NC(=O)CCCCCNC(=O)C[C@H](N)C(=O)N[C@@H](CCC(=O)N[C@@H](CCC(=O)N[C@@H](CCC(=O)N[C@@H](CCC(=O)O)C(=O)O)C(=O)O)C(=O)O)C(=O)O)c34)cc2)c1 [Compound 5]
22RV1
  IC50: > 100 µM
AN3CA
  IC50: 41.4 µM
HEPG2
  IC50: 72.2 µM
HUH6
  IC50: > 100 µM
JHH1
  IC50: > 100 µM
JHH2
  IC50: > 100 µM
JHH6
  IC50: > 100 µM
JHH7
  IC50: > 100 µM
K562
  IC50: > 100 µM
LNCAP-clone-FGC
  IC50: > 100 µM
Li-7
  IC50: > 100 µM
MDA-MB-231
  IC50: > 100 µM
MDA-MB-435S
  IC50: > 100 µM
MFM-223
  IC50: > 100 µM
MG63
  IC50: > 100 µM
NCI-H1648
  IC50: > 100 µM
NCI-H2170
  IC50: > 100 µM
NCI-H661
  IC50: > 100 µM
SK-HEP-1
  IC50: > 100 µM
SNU182
  IC50: > 100 µM
SNU354
  IC50: > 100 µM
SNU387
  IC50: > 100 µM
SNU475
  IC50: > 100 µM
SNU739
  IC50: > 100 µM
SNU761
  IC50: > 100 µM
TE-15
  IC50: > 100 µM
TE-6
  IC50: > 100 µM

## Cc1ccc(F)c(NC(=O)Nc2ccc(-c3cccc4[nH]nc(NC(=O)CCCCCCCCCCCNC(=O)C[C@H](N)C(=O)N[C@@H](CCC(=O)N[C@@H](CCC(=O)N[C@@H](CCC(=O)N[C@@H](CCC(=O)O)C(=O)O)C(=O)O)C(=O)O)C(=O)O)c34)cc2)c1 [Compound 8]
22RV1
  IC50: > 100 µM
AN3CA
  IC50: 5.68 µM
HEPG2
  IC50: 11.5 µM
HUH6
  IC50: > 100 µM
JHH1
  IC50: > 100 µM
JHH2
  IC50: > 100 µM
JHH6
  IC50: > 100 µM
JHH7
  IC50: 94.9 µM
K562
  IC50: > 100 µM
LNCAP-clone-FGC
  IC50: > 100 µM
Li-7
  IC50: > 100 µM
MDA-MB-231
  IC50: > 100 µM
MDA-MB-435S
  IC50: > 100 µM
MFM-223
  IC50: > 100 µM
MG63
  IC50: > 100 µM
NCI-H1648
  IC50: > 100 µM
NCI-H2170
  IC50: 75.3 µM
NCI-H661
  IC50: > 100 µM
SK-HEP-1
  IC50: > 100 µM
SNU182
  IC50: > 100 µM
SNU354
  IC50: > 100 µM
SNU387
  IC50: > 100 µM
SNU475
  IC50: > 100 µM
SNU739
  IC50: > 100 µM
SNU761
  IC50: > 100 µM
TE-15
  IC50: > 100 µM
TE-6
  IC50: > 100 µM
